Reference: publication PMC8778818, “Synthesis, Structural Characterization and Anticancer Activity of New 5-Trifluoromethyl-2-thioxo-thiazolo[4,5-d]pyrimidine Derivatives” (Pharmaceuticals, 2022)
Where “and” joins values, the source holds several entries; their conditions need not be identical. Equal entries are not always repeated. Where two headings read alike, the source gives them in different places.

Tests used:
HCT-116 = test: NCI-60 screen, Colon Cancer HCT-116; type: cell-based, human
MCF7 = test: NCI-60 screen, Breast Cancer MCF7; type: cell-based, human
SNB-19 = test: NCI-60 screen, CNS Cancer SNB-19; type: cell-based, human
LOX IMVI = test: NCI-60 screen, Melanoma LOX IMVI; type: cell-based, human
DU-145 = test: NCI-60 screen, Prostate C. DU-145; type: cell-based
BT-549 = test: NCI-60 screen, Breast Cancer BT-549; type: cell-based, human
UACC-62 = test: NCI-60 screen, Melanoma UACC-62; type: cell-based, human; conditions: UACC-62, 10^−5 M one dose
SF-539 = test: NCI-60 screen, CNS Cancer SF-539; type: cell-based, human
[1] = test system: A375, C32, DU145, MCF-7/WT, CHO-K1 and HaCaT cell lines; test: MTT cell viability assay, all six cell lines; type: cell-based; conditions: mean over the six cell lines; read-out: Mean A: the mean IC50 for the given compound
Protocol: (§1) Twelve compounds (2a-e, 3a-d and 4a-c) at a concentration range of 50–5000 μM were tested for their antiproliferative potential against four human cancer cell lines (A375—melanotic melanoma, C32—amelanotic melanoma, DU145—prostate cancer androgen-independent, MCF-7/WT—breast adenocarcinoma) and two normal cell lines: Chinese Hamster Ovary (CHO-K1) and immortalized human keratinocytes from histologically normal skin (HaCaT).
(§2) To determine the antiproliferative activity of newly synthesized compounds, the following cell lines were used: human melanotic melanoma cell line (A375), human amelanotic melanoma cell line (C32), human breast adenocarcinoma cell line (MCF-7/WT), human prostate cancer androgen-independent (DU145) and two normal cell lines: hamster ovarian (CHO-K1) and immortalized human keratinocytes from histologically normal skin (HaCaT). The cells were obtained from the cell line bank of the Department of Molecular and Cellular Biology, Wroclaw Medical University. A375, C32, MCF-7/WT, DU145 and HaCaT cells were grown in a monolayer cultured in Dulbecco’s Modified Eagle’s Medium (DMEM, Sigma-Aldrich, Poznań, Poland), supplemented with 10% of fetal bovine serum (FBS, Gibco, Paisley, UK) and 1% of antibiotics (penicillin/streptomycin, Sigma-Aldrich) and CHO-K1 were grown in HAM’s F-12 medium (Sigma-Aldrich), supplemented with 10% fetal bovine serum (FBS, Gibco) and 1% of antibiotics (penicillin/streptomycin, Sigma-Aldrich). Cell lines were cultured in the polystyrene flasks 25 or 75 cm^2 (Thermo Fisher Scientific, Waltham, MA, USA), which were stored in 37 °C and 5% CO2 in a humidified 95% atmosphere (SteriCult, Thermo Scientific, Alab). The cell medium was exchanged twice a week. The exponentially growing cells were used throughout the experiments. The cells were rinsed with phosphate-buffered saline (PBS, Sigma-Aldrich) and trypsinized by Trypsin-EDTA 0.25% solution (Sigma-Aldrich).
(§3) The influence of the compounds was performed in a monolayer culture on cancer and normal cells. Compounds were initially dissolved in DMSO; further dilutions of the compound were performed in Dulbecco’s Modified Eagle’s Medium supplemented with 10% FBS. Compounds were tested in a 50–5000 µM concentration range. In the in vitro experiments, the concentrations of DMSO in the final solution of the compounds were used 0.05%; 0.1%; 0.5%; 1%, respectively.
(§4) Cell viability was determined using the MTT colorimetric assay. All cell lines were seeded into 96-well plates to a density of 3 × 10^4 cells/well. After 24 h, the culture supernatants were removed and appropriate dilutions of compounds in the culture medium (200 µL/well) were added to the cells’ monolayer cultures and incubated for an additional 72 h. After 72 h of exposition to the compounds and the removal of the culture medium, cell viability was determined by reducing the yellow dye 3-(4,5-dimethyl-2-thiazol)-2,5-diphenyl-2H-tetrazolium bromide (MTT assay, Sigma Saint Louis, MO, USA; In Vitro Toxicology Assay) to a blue formazan product. The absorbance of the resulting solutions in three duplicate experiments was measured at the wavelength of 560 nm in a microplate reader (EnSpire, Perkin Elmer, Kraków, Poland). MTT assay is a colorimetric method that estimates the rate of metabolism in viable cells. Absorbance is directly proportional to the number of viable cells. All the experiments were performed three times and the mean absorbance values were calculated. The methodology for the evaluation of the growth of human cancer and normal cells was described previously. The cell viability in each group was expressed as a percentage of control (untreated) cells.

NCI/ADR-RES = test: NCI-60 screen, Ovarian Cancer NCI/ADR-RES; type: cell-based, human
UACC-257 = test: NCI-60 screen, Melanoma UACC-257; type: cell-based
KM12 = test: NCI-60 screen, Colon Cancer KM12; type: cell-based, human
TK-10 = test: NCI-60 screen, Renal Cancer TK-10; type: cell-based, human
PC-3 = test: NCI-60 screen, Prostate C. PC-3; type: cell-based
[2] = test system: 60 human cancer cell lines; test: NCI-60 anticancer screen, full panel; type: cell-based
DU145 = test: MTT cell viability assay, DU145; type: cell-based, human; conditions: Homo sapiens, DU-145; DU145, MTT, 72 h, mean ± SD
Protocol: as §1, §2, §3, §4

OVCAR-4 = test: NCI-60 screen, Ovarian Cancer OVCAR-4; type: cell-based, human
HaCaT = test: MTT cell viability assay, HaCaT; type: cell-based, human; conditions: Homo sapiens; HaCaT normal cells, MTT, 72 h, mean ± SD
Protocol: as §1, §2, §3, §4

A549/ATCC = test: NCI-60 screen, Non-Small Cell Lung Cancer A549/ATCC; type: cell-based, human
HOP-92 = test: NCI-60 screen, Non-Small Cell Lung Cancer HOP-92; type: cell-based, human
[3] = Homo sapiens, SNB-19, five doses 10^−4–10^−8 M
[4] = Homo sapiens, five doses 10^−4–10^−8 M
[5] = over the panel, values > −4.00 excluded
[6] = Homo sapiens, HOP-92, five doses 10^−4–10^−8 M

FC(F)(F)c1nc(Cl)c2sc(=S)n(-c3ccccc3)c2n1 [Compound 3b, 7-chloro-3-phenyl-5-(trifluoromethyl)[1, 3]thiazolo[4,5-d]pyrimidine-2(3H)-thione]
Growth of Cells (%) (HCT-116; HCT-116, 10^−5 M one dose): −27.21%
log TGI (HCT-116; HCT-116, five doses 10^−4–10^−8 M): −5.47 log M
GI50 (HCT-116; Homo sapiens, HCT-116, five doses 10^−4–10^−8 M): 1.74 µM
CC50 (HCT-116; Homo sapiens, HCT-116, five doses 10^−4–10^−8 M, read-out: log LC50 (the source's name) (converted)): 6.61 µM
GI50 (MCF7; Homo sapiens, MCF7, five doses 10^−4–10^−8 M): 2.24 µM
CC50 (MCF7; Homo sapiens, MCF7, five doses 10^−4–10^−8 M, read-out: log LC50 (the source's name) (converted)): 57.5 µM
Growth of Cells (%) (MCF7; MCF7, 10^−5 M one dose): 22.84%
log TGI (MCF7; MCF7, five doses 10^−4–10^−8 M): −5.25 log M
GI50 (SNB-19; [3]): 1.78 µM
LC50 (SNB-19; [3]): 5.89 µM
Growth of Cells (%) (SNB-19; SNB-19, 10^−5 M one dose): 98.46%
log TGI (SNB-19; SNB-19, five doses 10^−4–10^−8 M): −5.49 log M
Growth of Cells (%) (LOX IMVI; 10^−5 M one dose): 3.11%
GI50 (LOX IMVI; [4]): 1.78 µM
LC50 (LOX IMVI; [4]): 6.17 µM
log TGI (LOX IMVI; five doses 10^−4–10^−8 M): −5.48 log M
Growth of Cells (%) (DU-145; DU-145, 10^−5 M one dose): 9.04%
log TGI (DU-145; DU-145, five doses 10^−4–10^−8 M): −5.46 log M
GI50 (DU-145; Homo sapiens, DU-145, read-out: log GI50 (converted)): 1.86 µM
CC50 (DU-145; Homo sapiens, DU-145, five doses 10^−4–10^−8 M, read-out: log LC50 (the source's name) (converted)): 6.46 µM
Growth of Cells (%) (BT-549; BT-549, 10^−5 M one dose): 73.90%
log TGI (BT-549; BT-549, five doses 10^−4–10^−8 M): −5.50 log M
GI50 (BT-549; Homo sapiens, BT-549, five doses 10^−4–10^−8 M): 1.51 µM
CC50 (BT-549; Homo sapiens, BT-549, five doses 10^−4–10^−8 M, read-out: log LC50 (the source's name) (converted)): 6.76 µM
Growth of Cells (%) (UACC-62): 79.14%
GI50 (SF-539; Homo sapiens, SF-539, five doses 10^−4–10^−8 M): 1.66 µM
CC50 (SF-539; Homo sapiens, SF-539, five doses 10^−4–10^−8 M, read-out: log LC50 (the source's name) (converted)): 5.89 µM
Growth of Cells (%) (SF-539; SF-539, 10^−5 M one dose): 75.80%
log TGI (SF-539; SF-539, five doses 10^−4–10^−8 M): −5.50 log M
IC50 [1]: 43.8 µM
Growth of Cells (%) (NCI/ADR-RES; 10^−5 M one dose): 109.92%
GI50 (NCI/ADR-RES; [4]): 3.31 µM
CC50 (NCI/ADR-RES; Homo sapiens, five doses 10^−4–10^−8 M, read-out: log LC50 (the source's name) (converted)): > 100 µM
log TGI (NCI/ADR-RES; five doses 10^−4–10^−8 M): −4.96 log M
GI50 (UACC-257; Homo sapiens, UACC-257, five doses 10^−4–10^−8 M): 1.74 µM
CC50 (UACC-257; Homo sapiens, UACC-257, five doses 10^−4–10^−8 M, read-out: log LC50 (the source's name) (converted)): 7.94 µM
Growth of Cells (%) (UACC-257; UACC-257, 10^−5 M one dose): 19.38%
log TGI (UACC-257; UACC-257, five doses 10^−4–10^−8 M): −5.43 log M
GI50 (KM12; Homo sapiens, KM12, five doses 10^−4–10^−8 M): 2.29 µM
CC50 (KM12; Homo sapiens, KM12, five doses 10^−4–10^−8 M, read-out: log LC50 (the source's name) (converted)): 14.5 µM
Growth of Cells (%) (KM12; KM12, 10^−5 M one dose): 90.93%
log TGI (KM12; KM12, five doses 10^−4–10^−8 M): −5.30 log M
GI50 (TK-10; Homo sapiens, TK-10, five doses 10^−4–10^−8 M): 2 µM
CC50 (TK-10; Homo sapiens, TK-10, five doses 10^−4–10^−8 M, read-out: log LC50 (the source's name) (converted)): 8.32 µM
Growth of Cells (%) (TK-10; TK-10, 10^−5 M one dose): 51.24%
log TGI (TK-10; TK-10, five doses 10^−4–10^−8 M): −5.39 log M
GI50 (PC-3; Homo sapiens, PC-3, five doses 10^−4–10^−8 M): 1.82 µM
CC50 (PC-3; Homo sapiens, PC-3, five doses 10^−4–10^−8 M, read-out: log LC50 (the source's name) (converted)): 6.76 µM
Growth of Cells (%) (PC-3; PC-3, 10^−5 M one dose): 53.66%
log TGI (PC-3; PC-3, five doses 10^−4–10^−8 M): −5.45 log M
Mean Growth % ([2]; 10^−5 M one dose, mean over the panel): 29.51%
GI50 ([2]; Homo sapiens, five doses 10^−4–10^−8 M, mean graph midpoint over all tested cell lines, read-out: log GI50 Mean MG_MID (converted)): 2.19 µM
CC50 ([2]; Homo sapiens, five doses 10^−4–10^−8 M, mean graph midpoint over all tested cell lines, read-out: log LC50 Mean MG_MID (converted)): 16.6 µM
CC50 ([2]; Homo sapiens, one number printed for the pair, read-out: log LC50 MG_MID/Δ (converted)): 16.6 µM
log TGI Mean MG_MID ([2]; five doses 10^−4–10^−8 M, mean graph midpoint over all tested cell lines): −5.30 log M and −5.3 log M
N2: number of cell lines giving positive log TGI (≤−4.01) ([2]; of N = 58 tested cell lines): 58
log GI50 Range [2, 5]: −4.86 to −6.69 log M
log LC50 Range [2, 5]: −4.03 to −5.82 log M
log TGI Range [2, 5]: −4.31 to −6.33 log M
IC50 (DU145): 55.1 ± 1.1 µM
GI50 (OVCAR-4; Homo sapiens, OVCAR-4, five doses 10^−4–10^−8 M): 1.78 µM
CC50 (OVCAR-4; Homo sapiens, OVCAR-4, five doses 10^−4–10^−8 M, read-out: log LC50 (the source's name) (converted)): 7.24 µM
Growth of Cells (%) (OVCAR-4; OVCAR-4, 10^−5 M one dose): 23.73%
log TGI (OVCAR-4; OVCAR-4, five doses 10^−4–10^−8 M): −5.44 log M
IC50 (HaCaT): 33.5 ± 0.7 µM
Growth of Cells (%) (A549/ATCC; 10^−5 M one dose): 91.16%
GI50 (A549/ATCC; [4]): 7.59 µM
LC50 (A549/ATCC; [4]): 53.7 µM
log TGI (A549/ATCC; five doses 10^−4–10^−8 M): −4.66 log M
Growth of Cells (%) (HOP-92; HOP-92, 10^−5 M one dose): −21.23%
log TGI (HOP-92; HOP-92, five doses 10^−4–10^−8 M): −5.56 log M
GI50 (HOP-92; [6]): 1.26 µM
LC50 (HOP-92; [6]): 5.89 µM
